Data from patent publication US20150344444A1, “BET-PROTEIN-INHIBITING DIHYDROXYQUINOXALINONES” (BAYER PHARMA AKTIENGESELLSCHAFT, priority 2012, published 2015).

Key:
[1] = molecular target: T1, BRD4 Bromo Domain 1 [BRD4(1)] (Homo sapiens, UniProt O60885); test: BRD4(1)/acetylated peptide H4 binding assay (TR-FRET); details: inhibition of interaction between His6-tagged BRD4(1) (amino acids 67-152) and acetylated histone H4 peptide
T1 construct: N-terminally His6-tagged BRD4(1) (amino acids 67-152); made in house; host or cells: E. coli
Source text: Protein-Protein Interaction Assay: BRD4/Acetylated Peptide H4 Binding Assay
1. Assay Description for BRD4 Bromo Domain 1 [BRD4(1)]
To assess the BRD4(1) binding strength of the substances described in this application, the ability thereof to inhibit the interaction between BRD4(1) and acetylated histone H4 in a dose-dependent manner was quantified.
For this purpose, a time-resolved fluorescence resonance energy transfer (TR-FRET) assay was used, which measures the binding between N-terminally His6-tagged BRD4(1) (amino acids 67-152) and a synthetic acetylated histone H4 (Ac-H4) peptide with sequence GRGK(Ac)GGK(Ac)GLGK(Ac)GGAK(Ac)RHGSGSK-biotin. The recombinant BRD4(1) protein produced in house according to Filippakopoulos et al., Cell, 2012, 149:214-231 was expressed in E. coli and purified by means of (Ni-NTA) affinity and (Sephadex G-75) size exclusion chromatography. The Ac-H4 peptide can be purchased, for example, from Biosyntan (Berlin, Germany).
In the assay, typically 11 different concentrations of each substance (0.1 nM, 0.33 nM, 1.1 nM, 3.8 nM, 13 nM, 44 nM, 0.15 μM, 0.51 μM, 1.7 μM, 5.9 μM and 20 μM) were analysed as duplicates on the same microtitre plate. For this purpose, 100-fold concentrated solutions in DMSO were prepared by serial dilutions (1:3.4) of a 2 mM stock solution into a clear, 384-well microtitre plate (Greiner Bio-One, Frickenhausen, Germany). From this, 50 nl were transferred into a black test plate (Greiner Bio-One, Frickenhausen, Germany). The test was started by the addition of 2 μl of a 2.5-fold concentrated BRD4(1) solution (final concentration typically 10 nM in the 5 μl of reaction volume) in aqueous assay buffer [50 mM HEPES pH 7.5, 50 mM sodium chloride (NaCl), 0.25 mM CHAPS and 0.05% serum albumin (BSA)] to the substances in the test plate. This was followed by a 10-minute incubation step at 22° C. for the pre-equilibration of putative complexes between BRD4(1) and the substances.
The mixture was then incubated in the dark at 22° C. for one hour and then at 4° C. for at least 3 hours and for no longer than overnight. The formation of BRD4(1)/Ac-H4 complexes was determined by the measurement of the resonance energy transfer from the streptavidin-Eu cryptate to the anti-6His-XL665 antibody present in the reaction. For this purpose, the fluorescence emission was measured at 620 nm and 665 nm after excitation at 330-350 nm in a TR-FRET measuring instrument, for example a Rubystar or Pherastar (both from BMG Lab Technologies, Offenburg, Germany) or a Viewlux (Perkin-Elmer). The ratio of the emissions at 665 nm and at 622 nm was taken as an indicator of the amount of BRD4(1)/Ac-H4 complexes formed.
The data (ratios) obtained were normalized, with 0% inhibition corresponding to the mean from the measurements for a set of controls (typically 32 data points) in which all the reagents were present. In these, in place of test substances, 50 nl of DMSO (100%) were used Inhibition of 100% corresponded to the mean from the measurements for a set of controls (typically 32 data points) in which all the reagents except BRD4(1) were present. The IC50 was determined by regression analysis based on a 4-parameter equation (minimum, maximum, IC50, Hill; Y=max+(min−max)/(1+(X/IC50)Hill).

[2] = test system: MOLM-13 cells; test: MOLM-13 cell proliferation assay (alamarBlue); type: cell-based; details: inhibition of cell proliferation, 96 hours, human AML cell line
Method: (§1) In accordance with the invention, the ability of the substances to inhibit cell proliferation was determined Cell viability was determined by means of the alamarBlue® reagent (Invitrogen) in a Victor X3 Multilabel Reader (Perkin Elmer). The excitation wavelength was 530 nm and the emission wavelength […].
The MOLM-13 cells (DSMZ, ACC 554) were sown at a concentration of 4000 cells/well in 100 μl of growth medium (RPMI1640, 10% FCS) on 96-well microtitre plates.
(§2) After overnight incubation at 37° C., the fluorescence values were determined (CI values). Then the plates were treated with various substance dilutions (1E-5 M, 3E-6 M, 1E-6 M, 3E-7 M, 1E-7 M, 3E-8 M, 1E-8 M) and incubated at 37° C. over 96 hours (MOLM-13, B16F10 cells) or 120 hours (MOLP-8 cells). Subsequently, the fluorescence values were determined (CO values). For the data analysis, the CI values were subtracted from the CO values and the results were compared between cells which had been treated with various dilutions of the substance or only with buffer solution. The IC50 values (substance concentration needed for 50% inhibition of cell proliferation) were calculated therefrom.
MOLM-13 human AML (acute myeloid leukaemia) cell line

[3] = test system: MOLP-8 cells; test: MOLP-8 cell proliferation assay (alamarBlue); type: cell-based; details: inhibition of cell proliferation, 120 hours, human multiple myeloma cell line
Method: as §1
The MOLP-8 cells (DSMZ, ACC 569) were sown at a concentration of 4000 cells/well in 100 μl of growth medium (RPMI1640, 20% FCS) on 96-well microtitre plates.
as §2
MOLP-8 human multiple myeloma cell line

[4] = test system: B16F10 cells; test: B16F10 cell proliferation assay (alamarBlue); type: cell-based; details: B16-F10; inhibition of cell proliferation, 96 hours, mouse melanoma cell line
Method: as §1
The B16F10 cells (ATCC, CRL-6475) were sown at a concentration of 300-500 cells/well in 100 μl of growth medium (DMEM with phenol red, 10% FCS) on 96-well microtitre plates.
as §2
B16F10 mouse melanoma cell line

| IC50 [1] [µM] | IC50 [2] [µM] | IC50 [4] [µM] | SMILES | IC50 [3] [µM] |
| --- | --- | --- | --- | --- |
| 0.257 | 0.374 | 0.251 | C[C@@H]1C(=O)N(C)c2ccc(Nc3ccc(C(=O)N4CC5(CCS5(=O)=O)C4)cc3)cc2N1Cc1ccccc1 [Example 16, (3R)-4-benzyl-6-({4-[(1,1-dioxido-1-thia-6-azaspiro[3.3]hept-6-yl)carbonyl]phenyl}amino)-1,3-dimethyl-3,4-dihydroquinoxalin-2(1H)-one] | 0.096 |
| 0.114 | 0.315 | 0.378 | COc1ccc(CN2c3cc(Nc4ccc(C(=O)NC5CCN(C)CC5)cc4)ccc3N(C)C(=O)[C@H]2C)cc1 [Example 17, 4-{[(3R)-4-(4-methoxybenzyl)-1,3-dimethyl-2-oxo-1,2,3,4-tetrahydroquinoxalin-6-yl]amino}-N-(1-methylpiperidin-4-yl)benzamide] | 0.069 |
| 0.19 | 0.257 | 0.287 | COc1ccc(CN2c3cc(Nc4ccc(C(=O)N5CCOCC5)cc4)ccc3N(C)C(=O)[C@H]2C)cc1 [Example 18, (3R)-4-(4-methoxybenzyl)-1,3-dimethyl-6-{[4-(morpholin-4-ylcarbonyl)phenyl]amino}-3,4-dihydroquinoxalin-2(1H)-one] | 0.148 |
| 0.148 | 0.335 | 0.248 | COc1ccc(CN2c3cc(Nc4ccc(C(=O)NCC5COC5)cc4)ccc3N(C)C(=O)[C@H]2C)cc1 [Example 19, 4-{[(3R)-4-(4-methoxybenzyl)-1,3-dimethyl-2-oxo-1,2,3,4-tetrahydroquinoxalin-6-yl]amino}-N-(oxetan-3-ylmethyl)benzamide] | 0.124 |
| 0.105 | 0.351 | 0.256 | COc1ccc(CN2c3cc(Nc4ccc(C(=O)N5CC6(COC6)C5)cc4)ccc3N(C)C(=O)[C@H]2C)cc1 [Example 20, (3R)-4-(4-methoxybenzyl)-1,3-dimethyl-6-{[4-(2-oxa-6-azaspiro[3.3]hept-6-ylcarbonyl)phenyl]amino}-3,4-dihydroquinoxalin-2(1H)-one] | 0.12 |
| 0.108 | 0.275 | 0.403 | COc1ccc(CN2c3cc(Nc4ccc(C(=O)NCCN5CCN(C)CC5)cc4)ccc3N(C)C(=O)[C@H]2C)cc1 [Example 21, 4-{[(3R)-4-(4-methoxybenzyl)-1,3-dimethyl-2-oxo-1,2,3,4-tetrahydroquinoxalin-6-yl]amino}-N-[2-(4-methylpiperazin-1-yl)ethyl]benzamide] | 0.069 |
| 0.175 | 0.261 | 0.522 | COc1ccc(CN2c3cc(Nc4ccc(C(=O)N5CCN(C(C)C)CC5)cc4)ccc3N(C)C(=O)[C@H]2C)cc1 [Example 22, (3R)-4-(4-methoxybenzyl)-1,3-dimethyl-6-[(4-{[4-(propan-2-yl)piperazin-1-yl]carbonyl}phenyl)amino]-3,4-dihydroquinoxalin-2(1H)-one] | 0.093 |
| 0.176 | 1.26 | 1.96 | C[C@@H]1C(=O)N(C)c2ccc(Nc3ccc(C(=O)NC4CCN(C)CC4)cc3)cc2N1C1CCCCCC1 [Example 23, 4-{[(3R)-4-cycloheptyl-1,3-dimethyl-2-oxo-1,2,3,4-tetrahydroquinoxalin-6-yl]amino}-N-(1-methylpiperidin-4-yl)benzamide] | 1.02 |
| 0.143 | 0.967 | 0.732 | C[C@@H]1C(=O)N(C)c2ccc(Nc3ccc(C(=O)N4CCOCC4)cc3)cc2N1C1CCCCCC1 [Example 24, (3R)-4-cycloheptyl-1,3-dimethyl-6-{[4-(morpholin-4-ylcarbonyl)phenyl]amino}-3,4-dihydroquinoxalin-2(1H)-one] | 0.662 |
| 0.374 | 1.58 | 4.01 | C[C@@H]1C(=O)N(C)c2ccc(Nc3ccc(C(=O)NC4CCN(C)CC4)cc3)cc2N1C1CCOCC1 [Example 26, 4-{[(3R)-1,3-dimethyl-2-oxo-4-(tetrahydro-2H-pyran-4-yl)-1,2,3,4-tetrahydroquinoxalin-6-yl]amino}-N-(1-methylpiperidin-4-yl)benzamide] | 1.03 |
| 0.23 | 1.95 | 2.49 | C[C@@H]1C(=O)N(C)c2ccc(Nc3ccc(C(=O)N4CCOCC4)cc3)cc2N1C1CCOCC1 [Example 27, (3R)-1,3-dimethyl-6-{[4-(morpholin-4-ylcarbonyl)phenyl]amino}-4-(tetrahydro-2H-pyran-4-yl)-3,4-dihydroquinoxalin-2(1H)-one] | 1.13 |
| 0.366 | 2.76 | 2.83 | C[C@@H]1C(=O)N(C)c2ccc(Nc3ccc(C(=O)NCC4COC4)cc3)cc2N1C1CCOCC1 [Example 28, 4-{[(3R)-1,3-dimethyl-2-oxo-4-(tetrahydro-2H-pyran-4-yl)-1,2,3,4-tetrahydroquinoxalin-6-yl]amino}-N-(oxetan-3-ylmethyl)benzamide] | 1.8 |
| 0.185 | 2.27 | 2.71 | C[C@@H]1C(=O)N(C)c2ccc(Nc3ccc(C(=O)N4CC5(COC5)C4)cc3)cc2N1C1CCOCC1 [Example 29] | 1.12 |
| 0.384 | 1.7 | 2.68 | C[C@@H]1C(=O)N(C)c2ccc(Nc3ccc(C(=O)NCCN4CCN(C)CC4)cc3)cc2N1C1CCOCC1 [Example 30, 4-{[(3R)-1,3-dimethyl-2-oxo-4-(tetrahydro-2H-pyran-4-yl)-1,2,3,4-tetrahydroquinoxalin-6-yl]amino}-N-[2-(4-methylpiperazin-1-yl)ethyl]benzamide] | 0.869 |
| 0.192 | 1.79 | 3.24 | C[C@@H]1C(=O)N(C)c2ccc(Nc3ccc(C(=O)N4CC5(CCS5(=O)=O)C4)cc3)cc2N1C1CCOCC1 [Example 31, (3R)-6-({4-[(1,1-dioxido-1-thia-6-azaspiro[3.3]hept-6-yl)carbonyl]phenyl}amino)-1,3-dimethyl-4-(tetrahydro-2H-pyran-4-yl)-3,4-dihydroquinoxalin-2(1H)-one] | 1.25 |
